Data as given in the NIST ThermoML archive (doi:10.1016/j.fluid.2016.02.004).
± gives the expanded uncertainty stated by the source.

Experiment: activity coefficient (dimensionless); of the first substance listed, at infinite dilution; xn = mol fraction of the nth substance listed
Conditions: 318.15 K; Liquid; Chromatography; x1 = 0

Compared with CCO [ethanol] + CCCCn1cc[n+](C)c1.N#CN=C=[N-], CO [methanol] + CCCCn1cc[n+](C)c1.N#CN=C=[N-] is lower in activity coefficient: 0.65 ± 0.044 for the first, 0.399 ± 0.034 for the second.

First: CCOC(C)=O [ethyl acetate] + CCCCn1cc[n+](C)c1.N#CN=C=[N-]
Second: COC(C)=O [methyl ethanoate] + CCCCn1cc[n+](C)c1.N#CN=C=[N-]
The activity coefficient of the first is higher: 2.57 ± 0.17 for the first, 1.61 ± 0.11 for the second.

Going from CCc1ccccc1 [ethylbenzene] + CCCCn1cc[n+](C)c1.N#CN=C=[N-] to CC(C)c1ccccc1 [isopropylbenzene] + CCCCn1cc[n+](C)c1.N#CN=C=[N-], the activity coefficient rises from 4.78 ± 0.33 to 7.3 ± 0.5.

First: CCCCCCC [heptane] + CCCCn1cc[n+](C)c1.N#CN=C=[N-]
Second: CCCCCCCC [octane] + CCCCn1cc[n+](C)c1.N#CN=C=[N-]
The activity coefficient of the first is lower: 91 ± 6.2 for the first, 137 ± 9 for the second.

Going from C=CCCCC [hex-1-ene] + CCCCn1cc[n+](C)c1.N#CN=C=[N-] to C=CCCCCCC [oct-1-ene] + CCCCn1cc[n+](C)c1.N#CN=C=[N-], the activity coefficient rises from 26.4 ± 1.8 to 60.1 ± 4.1.

Compared with CCCCCC [hexane] + CCCCn1cc[n+](C)c1.N#CN=C=[N-], CCCCCCCCC [nonane] + CCCCn1cc[n+](C)c1.N#CN=C=[N-] is higher in activity coefficient: 61.6 ± 4.2 for the first, 207 ± 14 for the second.

Going from CCCC(=O)OC [methyl butanoate] + CCCCn1cc[n+](C)c1.N#CN=C=[N-] to CCC(=O)OC [methyl propanoate] + CCCCn1cc[n+](C)c1.N#CN=C=[N-], the activity coefficient falls from 3.46 ± 0.24 to 2.36 ± 0.16.

CC1CCCCC1 [methylcyclohexane] + CCCCn1cc[n+](C)c1.N#CN=C=[N-] gave an activity coefficient of 40.2 ± 2.8.

Same assay, conditions: 328.15 K; Liquid; Chromatography; x1 = 0

Going from CCO [ethanol] + CCCCn1cc[n+](C)c1.N#CN=C=[N-] to CO [methanol] + CCCCn1cc[n+](C)c1.N#CN=C=[N-], the activity coefficient falls from 0.658 ± 0.045 to 0.408 ± 0.034.

First: CCOC(C)=O [ethyl acetate] + CCCCn1cc[n+](C)c1.N#CN=C=[N-]
Second: COC(C)=O [methyl ethanoate] + CCCCn1cc[n+](C)c1.N#CN=C=[N-]
The activity coefficient of the first is higher: 2.68 ± 0.18 for the first, 1.71 ± 0.11 for the second.

First: CCc1ccccc1 [ethylbenzene] + CCCCn1cc[n+](C)c1.N#CN=C=[N-]
Second: CC(C)c1ccccc1 [isopropylbenzene] + CCCCn1cc[n+](C)c1.N#CN=C=[N-]
The activity coefficient of the first is lower: 4.89 ± 0.33 for the first, 7.52 ± 0.51 for the second.

Going from CCCCCCC [heptane] + CCCCn1cc[n+](C)c1.N#CN=C=[N-] to CCCCCCCC [octane] + CCCCn1cc[n+](C)c1.N#CN=C=[N-], the activity coefficient rises from 87.2 ± 6 to 129 ± 9.

Going from C=CCCCC [hex-1-ene] + CCCCn1cc[n+](C)c1.N#CN=C=[N-] to C=CCCCCCC [oct-1-ene] + CCCCn1cc[n+](C)c1.N#CN=C=[N-], the activity coefficient rises from 25.9 ± 1.8 to 58.9 ± 4.

First: CCCCCC [hexane] + CCCCn1cc[n+](C)c1.N#CN=C=[N-]
Second: CCCCCCCCC [nonane] + CCCCn1cc[n+](C)c1.N#CN=C=[N-]
The activity coefficient of the first is lower: 59.3 ± 4.1 for the first, 193 ± 13 for the second.

Compared with CCCC(=O)OC [methyl butanoate] + CCCCn1cc[n+](C)c1.N#CN=C=[N-], CCC(=O)OC [methyl propanoate] + CCCCn1cc[n+](C)c1.N#CN=C=[N-] is lower in activity coefficient: 3.61 ± 0.25 for the first, 2.47 ± 0.17 for the second.

For CC1CCCCC1 [methylcyclohexane] + CCCCn1cc[n+](C)c1.N#CN=C=[N-], the activity coefficient was 38.3 ± 2.6.

Same assay, conditions: 338.15 K; Liquid; Chromatography; x1 = 0

First: CCO [ethanol] + CCCCn1cc[n+](C)c1.N#CN=C=[N-]
Second: CO [methanol] + CCCCn1cc[n+](C)c1.N#CN=C=[N-]
The activity coefficient of the first is higher: 0.669 ± 0.045 for the first, 0.42 ± 0.035 for the second.

First: CCOC(C)=O [ethyl acetate] + CCCCn1cc[n+](C)c1.N#CN=C=[N-]
Second: COC(C)=O [methyl ethanoate] + CCCCn1cc[n+](C)c1.N#CN=C=[N-]
The activity coefficient of the first is higher: 2.79 ± 0.19 for the first, 1.81 ± 0.12 for the second.

Going from CCc1ccccc1 [ethylbenzene] + CCCCn1cc[n+](C)c1.N#CN=C=[N-] to CC(C)c1ccccc1 [isopropylbenzene] + CCCCn1cc[n+](C)c1.N#CN=C=[N-], the activity coefficient rises from 5.07 ± 0.35 to 7.72 ± 0.53.

First: CCCCCCC [heptane] + CCCCn1cc[n+](C)c1.N#CN=C=[N-]
Second: CCCCCCCC [octane] + CCCCn1cc[n+](C)c1.N#CN=C=[N-]
The activity coefficient of the first is lower: 83.9 ± 5.8 for the first, 123 ± 8 for the second.

Compared with C=CCCCC [hex-1-ene] + CCCCn1cc[n+](C)c1.N#CN=C=[N-], C=CCCCCCC [oct-1-ene] + CCCCn1cc[n+](C)c1.N#CN=C=[N-] is higher in activity coefficient: 25.5 ± 1.7 for the first, 58 ± 4 for the second.

Going from CCCCCC [hexane] + CCCCn1cc[n+](C)c1.N#CN=C=[N-] to CCCCCCCCC [nonane] + CCCCn1cc[n+](C)c1.N#CN=C=[N-], the activity coefficient rises from 57.1 ± 3.9 to 181 ± 12.

Compared with CCCC(=O)OC [methyl butanoate] + CCCCn1cc[n+](C)c1.N#CN=C=[N-], CCC(=O)OC [methyl propanoate] + CCCCn1cc[n+](C)c1.N#CN=C=[N-] is lower in activity coefficient: 3.75 ± 0.26 for the first, 2.59 ± 0.18 for the second.

CC1CCCCC1 [methylcyclohexane] + CCCCn1cc[n+](C)c1.N#CN=C=[N-] showed an activity coefficient of 36.5 ± 2.5.

Same assay, conditions: 348.15 K; Liquid; Chromatography; x1 = 0

First: CCO [ethanol] + CCCCn1cc[n+](C)c1.N#CN=C=[N-]
Second: CO [methanol] + CCCCn1cc[n+](C)c1.N#CN=C=[N-]
The activity coefficient of the first is higher: 0.677 ± 0.046 for the first, 0.431 ± 0.035 for the second.

Going from CCOC(C)=O [ethyl acetate] + CCCCn1cc[n+](C)c1.N#CN=C=[N-] to COC(C)=O [methyl ethanoate] + CCCCn1cc[n+](C)c1.N#CN=C=[N-], the activity coefficient falls from 2.91 ± 0.2 to 1.9 ± 0.13.

Going from CCc1ccccc1 [ethylbenzene] + CCCCn1cc[n+](C)c1.N#CN=C=[N-] to CC(C)c1ccccc1 [isopropylbenzene] + CCCCn1cc[n+](C)c1.N#CN=C=[N-], the activity coefficient rises from 5.19 ± 0.35 to 7.93 ± 0.54.

Going from CCCCCCC [heptane] + CCCCn1cc[n+](C)c1.N#CN=C=[N-] to CCCCCCCC [octane] + CCCCn1cc[n+](C)c1.N#CN=C=[N-], the activity coefficient rises from 80.6 ± 5.5 to 116 ± 8.

Compared with C=CCCCC [hex-1-ene] + CCCCn1cc[n+](C)c1.N#CN=C=[N-], C=CCCCCCC [oct-1-ene] + CCCCn1cc[n+](C)c1.N#CN=C=[N-] is higher in activity coefficient: 25.1 ± 1.7 for the first, 57 ± 3.9 for the second.

First: CCCCCC [hexane] + CCCCn1cc[n+](C)c1.N#CN=C=[N-]
Second: CCCCCCCCC [nonane] + CCCCn1cc[n+](C)c1.N#CN=C=[N-]
The activity coefficient of the first is lower: 55.2 ± 3.8 for the first, 171 ± 12 for the second.

Going from CCCC(=O)OC [methyl butanoate] + CCCCn1cc[n+](C)c1.N#CN=C=[N-] to CCC(=O)OC [methyl propanoate] + CCCCn1cc[n+](C)c1.N#CN=C=[N-], the activity coefficient falls from 3.9 ± 0.27 to 2.7 ± 0.18.

CC1CCCCC1 [methylcyclohexane] + CCCCn1cc[n+](C)c1.N#CN=C=[N-] gave an activity coefficient of 35 ± 2.4.

Same assay, conditions: 358.15 K; Liquid; Chromatography; x1 = 0

First: CCO [ethanol] + CCCCn1cc[n+](C)c1.N#CN=C=[N-]
Second: CO [methanol] + CCCCn1cc[n+](C)c1.N#CN=C=[N-]
The activity coefficient of the first is higher: 0.686 ± 0.046 for the first, 0.442 ± 0.036 for the second.

Going from CCOC(C)=O [ethyl acetate] + CCCCn1cc[n+](C)c1.N#CN=C=[N-] to COC(C)=O [methyl ethanoate] + CCCCn1cc[n+](C)c1.N#CN=C=[N-], the activity coefficient falls from 3 ± 0.2 to 1.99 ± 0.14.

Compared with CCc1ccccc1 [ethylbenzene] + CCCCn1cc[n+](C)c1.N#CN=C=[N-], CC(C)c1ccccc1 [isopropylbenzene] + CCCCn1cc[n+](C)c1.N#CN=C=[N-] is higher in activity coefficient: 5.33 ± 0.36 for the first, 8.11 ± 0.55 for the second.

Going from CCCCCCC [heptane] + CCCCn1cc[n+](C)c1.N#CN=C=[N-] to CCCCCCCC [octane] + CCCCn1cc[n+](C)c1.N#CN=C=[N-], the activity coefficient rises from 77.8 ± 5.3 to 111 ± 8.

First: C=CCCCC [hex-1-ene] + CCCCn1cc[n+](C)c1.N#CN=C=[N-]
Second: C=CCCCCCC [oct-1-ene] + CCCCn1cc[n+](C)c1.N#CN=C=[N-]
The activity coefficient of the first is lower: 24.7 ± 1.7 for the first, 56.2 ± 3.8 for the second.

Compared with CCCCCC [hexane] + CCCCn1cc[n+](C)c1.N#CN=C=[N-], CCCCCCCCC [nonane] + CCCCn1cc[n+](C)c1.N#CN=C=[N-] is higher in activity coefficient: 53.4 ± 3.7 for the first, 162 ± 11 for the second.

Going from CCCC(=O)OC [methyl butanoate] + CCCCn1cc[n+](C)c1.N#CN=C=[N-] to CCC(=O)OC [methyl propanoate] + CCCCn1cc[n+](C)c1.N#CN=C=[N-], the activity coefficient falls from 4.03 ± 0.27 to 2.81 ± 0.19.

CC1CCCCC1 [methylcyclohexane] + CCCCn1cc[n+](C)c1.N#CN=C=[N-] gave an activity coefficient of 33.6 ± 2.3.

Same assay, conditions: 368.15 K; Liquid; Chromatography; x1 = 0

First: CCO [ethanol] + CCCCn1cc[n+](C)c1.N#CN=C=[N-]
Second: CO [methanol] + CCCCn1cc[n+](C)c1.N#CN=C=[N-]
The activity coefficient of the first is higher: 0.694 ± 0.047 for the first, 0.46 ± 0.036 for the second.

First: CCOC(C)=O [ethyl acetate] + CCCCn1cc[n+](C)c1.N#CN=C=[N-]
Second: COC(C)=O [methyl ethanoate] + CCCCn1cc[n+](C)c1.N#CN=C=[N-]
The activity coefficient of the first is higher: 3.11 ± 0.21 for the first, 2.09 ± 0.14 for the second.

First: CCc1ccccc1 [ethylbenzene] + CCCCn1cc[n+](C)c1.N#CN=C=[N-]
Second: CC(C)c1ccccc1 [isopropylbenzene] + CCCCn1cc[n+](C)c1.N#CN=C=[N-]
The activity coefficient of the first is lower: 5.55 ± 0.38 for the first, 8.3 ± 0.6 for the second.

Going from CCCCCCC [heptane] + CCCCn1cc[n+](C)c1.N#CN=C=[N-] to CCCCCCCC [octane] + CCCCn1cc[n+](C)c1.N#CN=C=[N-], the activity coefficient rises from 75.3 ± 5.2 to 106 ± 7.

Going from C=CCCCC [hex-1-ene] + CCCCn1cc[n+](C)c1.N#CN=C=[N-] to C=CCCCCCC [oct-1-ene] + CCCCn1cc[n+](C)c1.N#CN=C=[N-], the activity coefficient rises from 24.4 ± 1.7 to 55.5 ± 3.8.

First: CCCCCC [hexane] + CCCCn1cc[n+](C)c1.N#CN=C=[N-]
Second: CCCCCCCCC [nonane] + CCCCn1cc[n+](C)c1.N#CN=C=[N-]
The activity coefficient of the first is lower: 51.7 ± 3.5 for the first, 153 ± 11 for the second.

Going from CCCC(=O)OC [methyl butanoate] + CCCCn1cc[n+](C)c1.N#CN=C=[N-] to CCC(=O)OC [methyl propanoate] + CCCCn1cc[n+](C)c1.N#CN=C=[N-], the activity coefficient falls from 4.17 ± 0.28 to 2.92 ± 0.2.

For CC1CCCCC1 [methylcyclohexane] + CCCCn1cc[n+](C)c1.N#CN=C=[N-], the activity coefficient was 32.4 ± 2.2.
